# Values of other authors as cited in patent US6899896B2, “Hydrogel-driven layered drug dosage form” (Pfizer Inc, priority 1999, dated 2005).
# Where two headings read alike, the source gives them in different places.
structure (smiles),measurement,setting,value
"CN[C@H]1CC[C@@H](c2ccc(Cl)c(Cl)c2)c2ccccc21 [Sertraline, (1S-cis)-4-(3,4-dichlorophenyl)-1,2,3,4-tetrahydro-N-methyl-1-naphthalenamine]",solubility of sertraline,pH 2.0,6 mgA/mL
same,solubility of sertraline,pH 6.5,about 1 mgA/mL
same,solubility of sertraline,pH about 7.0,about 0.2 mgA/mL
same,solubility of sertraline,pH about 7.5,about 0.05 mgA/mL
